Source: article PMC12624743 (ACS Infectious Diseases, 2025)
In brackets after ≈: the same amount, converted by molar mass.

Columns and labels:
[1] = biological target: T1, N. gonorrhoeae gyrase GyrA^S91F (Neisseria gonorrhoeae, UniProt P48371, S91F); experiment: DNA cleavage assay, GyrA^S91F gyrase; type: biochemical
T1 construct: His; made in house
Protocol: (§1) Some experiments replaced MgCl2 with an equivalent concentration of CaCl2 (10 mM), or 1.5 mM ATP was added to assay mixtures.
(§2) Reactions were incubated at 37 °C for 30 min with WT and mutant (GyrA^D90N, GyrA^A92T, GyrA^S91F, GyrA^D95G, or GyrA^S91F/D95G) N. gonorrhoeae gyrase, 10 min with WT N. gonorrhoeae topoisomerase IV, and 20 min with mutant (ParC^D86N, ParC^S88P, ParC^S87N, or ParC^E91G) N. gonorrhoeae topoisomerase IV. Enzyme-DNA cleavage complexes were trapped by adding 2 μL of 5% SDS followed by 2 μL of 250 mM EDTA (pH 8.0). Proteinase K was added (2 μL of a 0.8 mg/mL solution), and reaction mixtures were incubated at 45 °C for 30 min to digest the enzyme. Samples were mixed with 2 μL of loading buffer and heated at 45 °C for 2 min prior to electrophoresis in 1% agarose gels in 40 mM Tris-acetate (pH 8.3), and 2 mM EDTA containing 0.5 μg/mL ethidium bromide. DNA bands were visualized by midrange ultraviolet light and quantified using an Alpha Innotech digital imaging system (Protein Simple). Single-stranded DNA cleavage was monitored by the conversion of negatively supercoiled to nicked plasmid molecules.

[2] = biological target: T2, WT N. gonorrhoeae topoisomerase IV (Neisseria gonorrhoeae, UniProt P48374); experiment: Topoisomerase IV-catalyzed DNA decatenation assay, WT; type: biochemical; set-up: His; made in house
T2 sequence (P48374 1-768): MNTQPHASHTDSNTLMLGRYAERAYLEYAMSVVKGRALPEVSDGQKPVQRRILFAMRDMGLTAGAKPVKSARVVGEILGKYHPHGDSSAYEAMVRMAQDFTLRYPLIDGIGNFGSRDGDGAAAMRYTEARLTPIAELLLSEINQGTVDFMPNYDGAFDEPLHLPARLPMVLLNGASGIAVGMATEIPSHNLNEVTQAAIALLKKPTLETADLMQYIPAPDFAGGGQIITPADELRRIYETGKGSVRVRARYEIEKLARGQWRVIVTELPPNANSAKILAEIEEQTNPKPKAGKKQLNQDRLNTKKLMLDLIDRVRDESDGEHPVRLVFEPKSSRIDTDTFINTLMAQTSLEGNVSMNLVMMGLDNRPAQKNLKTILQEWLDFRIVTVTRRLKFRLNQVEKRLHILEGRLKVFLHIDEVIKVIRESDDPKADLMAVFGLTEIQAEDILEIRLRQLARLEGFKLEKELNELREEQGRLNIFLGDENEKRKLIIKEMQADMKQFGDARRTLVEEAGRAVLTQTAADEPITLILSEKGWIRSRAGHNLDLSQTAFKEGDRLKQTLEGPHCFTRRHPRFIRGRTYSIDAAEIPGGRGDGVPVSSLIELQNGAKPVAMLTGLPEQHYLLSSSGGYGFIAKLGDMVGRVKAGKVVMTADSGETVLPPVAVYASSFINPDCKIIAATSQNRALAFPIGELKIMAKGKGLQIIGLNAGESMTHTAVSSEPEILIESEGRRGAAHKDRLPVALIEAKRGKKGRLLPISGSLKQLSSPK
Protocol: (§3) All proteins were His-tagged. N. gonorrhoeae WT gyrase (GyrA, GyrB) and topoisomerase IV (ParC, ParE) subunits as well as mutant GyrA^D90N, GyrA^A92T, GyrA^S91F, and GyrA^S91F/D95G gyrase and ParC^D86N and ParC^S88P topoisomerase IV were prepared as described previously. , N. gonorrhoeae mutant GyrA^D95G gyrase and mutant ParC^S87N and ParC^E91G topoisomerase IV were generated using a QuickChange II XL site-directed mutagenesis kit (Agilent Technologies) with custom primers for the desired mutations. Mutant N. gonorrhoeae GyrA and ParC subunits were expressed and purified as described by Ashley et al. with the following modifications to optimize protein expression and lysis: (1) GyrA^D95G was expressed for 2.5 h and ParC^S87N and ParC^E91G were expressed for 3 h before harvesting, and (2) cells were lysed by sonication using a digital sonifier (Branson). The identities of all constructs were confirmed by DNA sequencing, and all enzymes were stored at −80 °C. In all assays, N. gonorrhoeae gyrase or topoisomerase IV was used as a 1:1 GyrA:GyrB or ParC:ParE mixture, respectively, and the stated enzyme concentration reflects that of the holoenzyme (A2B2). […]

[3] = biological target: N. gonorrhoeae topoisomerase IV ParC^E91G (Neisseria gonorrhoeae, UniProt P48374, E91G); experiment: Topoisomerase IV-catalyzed DNA decatenation assay, ParC^E91G; type: biochemical; set-up: His; made in house
Protocol: as §3

[4] = biological target: T3, WT N. gonorrhoeae gyrase (Neisseria gonorrhoeae, UniProt P48371); experiment: DNA cleavage assay, WT gyrase; type: biochemical
T3 construct: His; made in house
Protocol: as §1, §2

[5] = biological target: T4, N. gonorrhoeae gyrase GyrA^A92T (Neisseria gonorrhoeae, UniProt P48371, A92T); experiment: DNA cleavage assay, GyrA^A92T gyrase; type: biochemical
T4 construct: His; made in house
Protocol: as §1, §2

[6] = tested on: N. gonorrhoeae FA1090E-3 (GyrA^A92T/ParC^D86N); experiment: MIC by agar dilution, GyrA^A92T/ParC^D86N strain; type: cell-based, Neisseria gonorrhoeae
Protocol: This strain was designated FA1090E-3 (GyrA^A92T/ParC^D86N).
(§4) Minimum inhibitory concentration (MIC) of test compounds was determined by an agar dilution method, the reference testing method for N. gonorrhoeae according to the standards of the Clinical and Laboratory Standards Institute and the CDC.

[7] = tested on: N. gonorrhoeae FA1090E-2 (GyrA^WT/ParC^D86N); experiment: MIC by agar dilution, ParC^D86N strain; type: cell-based; conditions: Neisseria gonorrhoeae
Protocol: Mutations in these efflux genes can result in increased efflux to multiple antibiotics. […] Parental and isogenic mutant strains generated that carried the efflux mutations mtrR-79 and norM ΔT T6 were designated as FA1090E (E for efflux positive). Only the additional GyrA and ParC genotypes are described in Table and in the text. The mutant that additionally expressed ParC^D86N was named FA1090E-2.
as §4

T3 sequence (P48371 whole entry): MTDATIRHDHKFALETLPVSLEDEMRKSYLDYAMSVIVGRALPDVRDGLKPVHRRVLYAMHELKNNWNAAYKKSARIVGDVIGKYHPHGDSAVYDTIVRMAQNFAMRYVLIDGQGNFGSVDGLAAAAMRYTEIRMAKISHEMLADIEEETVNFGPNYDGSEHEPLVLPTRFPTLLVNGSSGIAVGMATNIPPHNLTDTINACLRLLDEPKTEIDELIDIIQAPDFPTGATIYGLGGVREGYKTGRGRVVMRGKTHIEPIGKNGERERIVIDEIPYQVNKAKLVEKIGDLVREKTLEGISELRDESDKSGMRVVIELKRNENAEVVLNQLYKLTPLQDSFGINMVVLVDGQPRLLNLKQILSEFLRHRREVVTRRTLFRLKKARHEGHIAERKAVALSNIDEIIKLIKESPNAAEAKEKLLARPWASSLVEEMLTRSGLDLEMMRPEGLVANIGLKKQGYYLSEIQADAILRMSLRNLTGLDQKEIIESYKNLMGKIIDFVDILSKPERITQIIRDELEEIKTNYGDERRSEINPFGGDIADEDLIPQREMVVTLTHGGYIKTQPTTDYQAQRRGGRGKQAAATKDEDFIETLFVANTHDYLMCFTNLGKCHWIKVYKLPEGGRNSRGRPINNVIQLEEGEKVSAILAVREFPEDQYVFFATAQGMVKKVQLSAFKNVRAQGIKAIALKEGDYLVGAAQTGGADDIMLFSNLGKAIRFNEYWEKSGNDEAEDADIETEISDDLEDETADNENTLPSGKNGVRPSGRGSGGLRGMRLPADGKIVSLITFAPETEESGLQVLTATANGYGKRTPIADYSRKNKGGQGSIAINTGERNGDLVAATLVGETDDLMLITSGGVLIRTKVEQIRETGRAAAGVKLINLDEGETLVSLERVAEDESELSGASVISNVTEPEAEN
T3 sequence (P22118 whole entry partner): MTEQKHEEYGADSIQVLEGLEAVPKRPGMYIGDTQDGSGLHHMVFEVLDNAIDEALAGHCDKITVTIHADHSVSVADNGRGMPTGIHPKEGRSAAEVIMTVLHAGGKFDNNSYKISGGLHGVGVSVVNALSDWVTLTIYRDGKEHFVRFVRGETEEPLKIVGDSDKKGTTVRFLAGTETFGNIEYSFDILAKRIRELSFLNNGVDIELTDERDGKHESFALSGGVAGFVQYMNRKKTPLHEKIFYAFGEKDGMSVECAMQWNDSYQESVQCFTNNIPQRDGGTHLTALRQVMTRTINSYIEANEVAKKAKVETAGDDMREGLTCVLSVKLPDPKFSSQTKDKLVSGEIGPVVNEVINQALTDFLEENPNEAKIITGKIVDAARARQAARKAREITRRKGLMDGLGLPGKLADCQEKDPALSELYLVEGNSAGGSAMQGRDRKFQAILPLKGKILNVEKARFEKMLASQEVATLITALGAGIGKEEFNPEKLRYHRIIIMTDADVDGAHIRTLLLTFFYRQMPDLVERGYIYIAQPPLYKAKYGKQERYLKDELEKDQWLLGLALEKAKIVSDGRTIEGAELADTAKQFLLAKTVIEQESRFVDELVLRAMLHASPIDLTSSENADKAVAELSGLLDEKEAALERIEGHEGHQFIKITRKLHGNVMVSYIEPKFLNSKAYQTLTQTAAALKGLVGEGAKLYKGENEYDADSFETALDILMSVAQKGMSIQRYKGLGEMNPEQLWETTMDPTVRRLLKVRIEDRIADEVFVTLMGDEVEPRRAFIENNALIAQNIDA
T4 sequence (P48371 whole entry A92T): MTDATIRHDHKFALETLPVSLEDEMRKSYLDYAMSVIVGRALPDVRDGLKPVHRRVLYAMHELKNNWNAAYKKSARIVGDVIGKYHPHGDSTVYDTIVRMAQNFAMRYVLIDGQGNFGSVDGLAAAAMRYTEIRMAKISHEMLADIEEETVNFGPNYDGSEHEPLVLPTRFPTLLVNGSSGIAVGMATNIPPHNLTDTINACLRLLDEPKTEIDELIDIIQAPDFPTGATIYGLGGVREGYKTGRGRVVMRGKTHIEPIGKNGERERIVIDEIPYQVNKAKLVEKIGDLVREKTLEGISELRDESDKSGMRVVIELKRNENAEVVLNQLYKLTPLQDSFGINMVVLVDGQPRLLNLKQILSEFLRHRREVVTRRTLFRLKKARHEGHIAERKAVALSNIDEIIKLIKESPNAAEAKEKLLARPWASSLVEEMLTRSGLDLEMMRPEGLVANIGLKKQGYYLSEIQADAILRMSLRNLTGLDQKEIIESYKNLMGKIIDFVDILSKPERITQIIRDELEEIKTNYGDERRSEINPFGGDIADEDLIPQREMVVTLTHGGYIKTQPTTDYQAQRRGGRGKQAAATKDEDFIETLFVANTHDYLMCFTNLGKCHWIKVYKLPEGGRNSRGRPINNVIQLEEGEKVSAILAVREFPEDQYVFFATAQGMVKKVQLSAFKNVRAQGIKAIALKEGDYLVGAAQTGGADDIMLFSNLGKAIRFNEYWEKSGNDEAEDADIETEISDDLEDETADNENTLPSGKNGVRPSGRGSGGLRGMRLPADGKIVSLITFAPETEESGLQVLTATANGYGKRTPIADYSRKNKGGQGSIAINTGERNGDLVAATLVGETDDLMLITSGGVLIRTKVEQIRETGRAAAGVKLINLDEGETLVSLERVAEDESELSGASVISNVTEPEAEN
T4 sequence (P22118 whole entry partner): as the sequence (P22118 whole entry partner) above
Sequence of N. gonorrhoeae topoisomerase IV ParC^E91G (P48374 whole entry E91G): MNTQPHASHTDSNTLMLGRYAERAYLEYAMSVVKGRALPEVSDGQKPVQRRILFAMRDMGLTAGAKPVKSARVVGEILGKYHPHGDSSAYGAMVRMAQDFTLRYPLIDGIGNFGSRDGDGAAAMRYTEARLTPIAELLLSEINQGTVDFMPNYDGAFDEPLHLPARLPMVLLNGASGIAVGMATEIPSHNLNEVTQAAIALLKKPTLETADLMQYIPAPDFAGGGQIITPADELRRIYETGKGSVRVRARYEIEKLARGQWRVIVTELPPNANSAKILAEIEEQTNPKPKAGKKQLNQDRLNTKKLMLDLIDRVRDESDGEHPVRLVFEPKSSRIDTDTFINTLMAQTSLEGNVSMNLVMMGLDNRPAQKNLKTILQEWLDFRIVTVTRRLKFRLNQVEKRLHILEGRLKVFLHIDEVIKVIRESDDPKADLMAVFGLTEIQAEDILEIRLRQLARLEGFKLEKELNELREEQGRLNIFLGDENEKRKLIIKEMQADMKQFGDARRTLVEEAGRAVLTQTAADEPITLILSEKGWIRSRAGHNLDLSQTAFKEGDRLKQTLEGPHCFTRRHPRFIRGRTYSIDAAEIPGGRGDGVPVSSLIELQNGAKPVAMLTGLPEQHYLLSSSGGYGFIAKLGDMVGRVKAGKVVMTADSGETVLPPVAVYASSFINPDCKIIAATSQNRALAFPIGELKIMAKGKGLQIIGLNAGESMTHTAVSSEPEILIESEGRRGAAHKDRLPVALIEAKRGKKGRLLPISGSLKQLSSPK

O=c1ccc2ncc(=O)n3c2n1C[C@H]3CN1CCC(NCc2cc3c(cn2)OCCC3)CC1 [gepotidacin]
Adj-Max Cleavage, single-stranded DNA breaks [1]: 5.5%
EC50 ([1]; GyrA S91F gyrase, read-out: CC50, single-stranded DNA cleavage): 17200 nM
fold decrease of adjusted maximal DNA cleavage vs WT ([1]; GyrA S91F vs WT): ~3.1 fold
IC50 [2]: 1800 ± 1300 nM
IC50 [3]: 1500 nM
effect of ATP on potency and maximal DNA cleavage ([4]; 1.5 mM ATP): little effect
effect on double-stranded DNA scission ([4]; Mg2+ replaced with Ca2+): little effect
EC50 ([4]; Mg2+, no ATP, read-out: CC50, single-stranded DNA cleavage): 900 ± 300 nM
Adj-Max Cleavage, single-stranded DNA breaks ([4]; adjusted for baseline cleavage): ~17.1%
additional enhancement of double-stranded DNA breaks above baseline ([4]; up to 200 μM gepotidacin, up to 180 min): not observed
Adj-Max Cleavage, single-stranded DNA breaks [5]: 4.9%
EC50 ([5]; GyrA A92T gyrase, read-out: CC50, single-stranded DNA cleavage): 500 nM
fold decrease of adjusted maximal DNA cleavage vs WT ([5]; GyrA A92T vs WT): ~3.5 fold
MIC ([6]; Neisseria gonorrhoeae): 8 µg/mL (≈ 17.8 µM)
fold-change in MIC from WT/WT parental strain ([6]; strain FA1090E-3 vs FA1090E): 16 fold
MIC [7]: 0.5 µg/mL (≈ 1.11 µM)
